# How the values were obtained:
# [1] = tested on: HeLa-Luc cells; assay: Cellular uptake and uptake mechanism in HeLa-Luc cells; assay type: cell-based; conditions: pre-incubation 1 h, then 24 nM sgLuc, 30 min
# Excerpt: First, DOTNPs containing Cas9/sgRNA RNPs that were tagged by a green fluorescent EGFP were tracked by confocal microscopy (FIG. 12A). […] Green: EGFP fused Cas9 protein; Blue: nuclei stained with Hoechst 33342. Red arrows indicated the process of DOTNP10 entering into nucleus. (FIG. 12B)
# To evaluate this strategy, 5A2-SC8 was selected as the ionizable cationic lipid because 5A2-SC8 LNPs safely deliver short siRNAs/miRNAs and long mRNAs to mice with compromised liver function, including MYC-driven liver cancer (Zhou et al., 2016; Zhang et al., 2018a; Zhang et al., 2018b) or genetic knockout of fumarylacetoacetate hydrolase (FAH) (Cheng et al., 2018). Introduction of a permanently cationic lipid (e.g. DOTAP) into traditional 4-component 5A2-SC8 LNP formulations indeed allowed controlled self-assembly to occur by mixing an ethanol solution of lipids with a PBS solution of RNPs (1/3, v/v). […] Initially using sgRNA targeting reporter Luciferase (sgLuc), the size of LNPs with 10 mole % DOTAP incorporation (5A2-DOT-10: 5A2-SC8/DOPE/Cho1/DMG-PEG/DOTAP=15/15/30/3/7 (mol/mol)) was observed, prepared using PBS buffer were slightly larger than nanoparticles without RNP loading. […]
# To examine the uptake mechanism, assays of specific inhibition on endocytosis pathways were evaluated using Hela-Luc cells. […] The cells were then collected and analyzed by flow cytometry. […]
# [2] = tested on: C57BL/6 mice; assay: In vivo Luc mRNA delivery after IV injection, ex vivo organ luminescence; set-up: species or system mouse; conditions: 6 h; for organ of luciferase expression (tissue specific mRNA delivery): IV, 0.1 mg/kg Luc mRNA
# Procedure: Next, to test the ability of these mDLNPs to deliver mRNA in vivo, mice were injected with a dose of 0.1 mg/kg of Luc mRNA in each of the formulations. […] Assuming that luciferase expression was detected only in liver, spleen and lung after IV injection, the percentage of luciferase expressed in each organ can be calculated (FIG. 1C). […] However, the greater the DOTAP percentage, the more luminescence is seen in lung tissues, with close to 100% of luminescence seen in the lung when DOTAP percentage is greater than 80% (FIG. 1C).
# C57BL/6 mice with weight of 18-20 g, were IV injected by various Luc mRNA formulations at a dose of 0.1 or 0.05 mg/kg. n=2-4 per group. After 6 h, mice were intraperitoneal (IP) injected with D-Luciferin (150 mg/kg) and imaged by an IVIS Lumina system (Perkin Elmer). For biodistribution, C57BL/6 mice were IV injected with Cy5-Luc mRNA formulations at a dose of 0.5 mg/kg. Ex vivo imaging (Cy5 channel) was performed 6 h post injection.
# [3] = tested on: C57BL/6 mice; assay: Biodistribution of Cy5-Luc mRNA formulations; assay type: in vivo, mouse; conditions: IV, 0.5 mg/kg, 6 h
# Procedure: To test the organ biodistributions of specific DOTAP formulations in greater depth, PBS or liver targeting NPs (mDLNP), spleen targeting NPs (DOTAP10) and lung targeting NPs (DOTAP50) were injected into C57BL/6 mice (n=2) at a dose of 0.5 mg/kg Cy5-Luc mRNA (dye labeled mRNA to track RNA LNPs). 6 h post injection, major organs were collected and imaged (FIG. 3A). The organ distribution of formulations was changed by the amount of DOTAP, and accumulation in liver gradually moved to lung with increasing DOTAP percentages, but regardless of DOTAP percentage, there are still NPs present in the liver (FIG. 7, FIG. 8). […] Further, considering the similar size distribution and EE between these formulations, zeta-potential and pKa may play roles in tissue targeting mRNA expression.
# Mechanistic experiments were conducted to explore how and why inclusion of extra lipids in defined categories controls mRNA delivery to different organs. It is logical that LNPs that deliver to cells within the lungs should biodistribute (accumulate) in the lungs. Cy5-labeled mRNA was delivered to track the in vivo distribution of 5A2-SC8 LNPs containing SORT lipids with lung (DOTAP quaternary amino lipid), spleen (18PA anionic lipid and DSPC zwitterionic lipid) and liver (DODAP ionizable tertiary amino lipid) tropism (FIGS. 27A & 28). […]
# [4] = tested on: Td-Tomato mice; assay: sgRNA screening in Td-Tomato mice; assay type: in vivo, mouse; conditions: mDLNP, Cas9/sgRNA 4/1 wt/wt, total 3 mg/kg IV, day 7
# Excerpt: These sgRNAs are sgTom1, sgTom2 and sgLoxP. […] Considering the weak PAM of sgLoxP (NAG), sgTom1 was finally chosen for further experiments.
Compound,organ of luciferase expression (tissue specific mRNA delivery) [2],further results
Methyl-o-cyclodextrin [MβCD],,effect of endocytosis inhibitor on uptake of 5A2-DOT-10 LNPs [1]: significantly inhibited
"CCCCCCCCCCCCCC(=O)OCC(COP(=O)(OCC)OCC[N+](C)(C)C)OC(=O)CCCCCCCCCCCCC.Cl (stereo not shown) [EPC, 1,2-dimyristoyl-sn-glycero-3-ethylphosphocholine]",liver to spleen to lung based on SORT lipid percentage,organ of luciferase signal at 40% SORT lipid ([2]; 0.1 mg/kg): high luciferase signal was observed exclusively in the lungs
"CCCCCCCCCCCCCCCCCC[N+](C)(C)CCCCCCCCCCCCCCCCCC [DDAB, dimethyldioctadecylammonium]",liver to spleen to lung based on SORT lipid percentage,organ of luciferase signal at 40% SORT lipid ([2]; 0.1 mg/kg): high luciferase signal was observed exclusively in the lungs
"CCCCCCCC/C=C\CCCCCCCC(=O)OCC(C[N+](C)(C)CCOP(=O)([O-])OCC)OC(=O)CCCCCCC/C=C\CCCCCCCC (stereo not shown) [DOCPe, 2-((2,3-bis(oleoyloxy)propyl)dimethylammonio)ethyl ethyl phosphate]",move from liver to spleen,
CCCCCCCCCCC(O)CN(CCN1CCN(CCN(CC(O)CCCCCCCCCC)CC(O)CCCCCCCCCC)CC1)CCN(CC(O)CCCCCCCCCC)CC(O)CCCCCCCCCC (stereo not shown) [C12-200],enhanced liver delivery without any luciferase expression in the lungs,"delivery efficacy compared with original mDLNP formulation ([2]; 0.1 mg/kg, n=2): much better delivery efficacy than original mDLNP formulation"
"CCCCCCCC/C=C\CCCCCCCC(=O)OC[C@H](COP(=O)(O)O)OC(=O)CCCCCCC/C=C\CCCCCCCC [18PA, 1,2-dioleoyl-sn-glycero-3-phosphate]",exclusively spleen,organ distribution of Cy5-labeled mRNA [3]: increased uptake into the spleen
"CCCCCCCC/C=C\CCCCCCCC(=O)OCC(O)COP(=O)(O)OCC(COC(=O)CCCCCCC/C=C\CCCCCCCC)OC(=O)CCCCCCC/C=C\CCCCCCCC (stereo not shown) [18BMP, sn-(3-oleoyl-2-hydroxy)-glycerol-1-phospho-sn-3′-(1′,2′-dioleoyl)-glycerol]",exclusively spleen,
"sgTom1: sgRNA, AAGTAAAACCTCTACAAATG (SEQ ID NO: 1) (chemically modified sgRNA from Synthego, pattern not given here)",,induction of TdTomato in liver [4]: more successful at inducing TdTomato than sgTom2
"CCCCCCCCCCCCCCCCCC(=O)OC[C@H](COP(=O)([O-])OCC[N+](C)(C)C)OC(=O)CCCCCCCCCCCCCCCCC [DSPC, 1,2-distearoyl-sn-glycero-3-phosphocholine]",move from liver to spleen,
"CCCCCCCC/C=C\CCCCCCCC(=O)OCC(CN(C)C)OC(=O)CCCCCCC/C=C\CCCCCCCC (stereo not shown) [DODAP, 1,2-dioleoyl-3-dimethylammonium-propane]",enhanced liver delivery without any luciferase expression in the lungs,"mRNA delivery when added to C2 LNPs (no ionizable cationic lipid) ([2]; 0.1 mg/kg, n=2): failed to enable significant mRNA delivery"
"CCCCCCCC/C=C\CCCCCCCC(=O)OCC(C[N+](C)(C)C)OC(=O)CCCCCCC/C=C\CCCCCCCC (stereo not shown) [DOTAP, 1,2-dioleoyl-3-trimethylammonium-propane]",liver to spleen to lung based on SORT lipid percentage,"mRNA delivery when added to C2 LNPs (no ionizable cationic lipid) ([2]; 0.1 mg/kg, n=2): failed to enable significant mRNA delivery; organ distribution of Cy5-labeled mRNA [3]: progressive increase in lung accumulation"
"CCCCCCCCCCCCCC(=O)OC[C@H](COP(=O)(O)O)OC(=O)CCCCCCCCCCCCC [14PA, 1,2-dimyristoyl-sn-glycero-3-phosphate]",exclusively spleen,

# Reference: patent publication US12133924B2, “Compositions and methods for organ specific delivery of nucleic acids” (The Board of Regents of The University of Texas System, priority 2018, dated 2024)
